In test [1] the target is T1, Flt-3 (baculovirus expressed human Flt-3 kinase domain R571-S993) (Homo sapiens, UniProt P36888).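 Further: Luciferase-coupled chemiluminescent kinase assay, activity read as percent ATP left after a 3 h reaction at room temperature, ATP near KM, 10-point dose-response.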
T1 construct: human Flt-3 kinase domain R571-S993; host or cells: baculovirus expression
T1 sequence (P36888 571-993): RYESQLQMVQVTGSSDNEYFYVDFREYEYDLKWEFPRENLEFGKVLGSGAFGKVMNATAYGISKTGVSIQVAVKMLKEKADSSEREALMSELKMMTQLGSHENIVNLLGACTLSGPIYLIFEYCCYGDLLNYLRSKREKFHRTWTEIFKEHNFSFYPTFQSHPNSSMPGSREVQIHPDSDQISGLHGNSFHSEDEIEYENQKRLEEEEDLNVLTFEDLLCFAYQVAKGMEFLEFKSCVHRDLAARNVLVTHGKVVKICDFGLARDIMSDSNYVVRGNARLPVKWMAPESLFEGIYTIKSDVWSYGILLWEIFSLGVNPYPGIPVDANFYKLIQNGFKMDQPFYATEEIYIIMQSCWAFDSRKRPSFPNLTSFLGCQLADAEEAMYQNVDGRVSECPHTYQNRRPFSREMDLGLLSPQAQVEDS
Briefly: biochemical. The note with it: read-out: flt3 IC50.

Another test has as its target c-Kit kinase (Homo sapiens, UniProt P10721). Kind of test: c-Kit AlphaScreen kinase assay.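 Further: c-Kit kinase phosphorylating biotinylated poly(Glu,Tyr), ATP near its KM, 1 h reaction at ambient temperature, AlphaScreen chemiluminescence with streptavidin donor and anti-phosphotyrosine acceptor beads, 10-point inhibitor titration.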 Type of test: biochemical.
In test [2] the target is T2, c-Met (baculovirus expressed human c-Met kinase domain P948-S1343) (Homo sapiens, UniProt P08581).
T2 construct: human c-Met kinase domain P948-S1343; host or cells: baculovirus expression
Kind of test: c-Met Luciferase-Coupled Chemiluminescent Kinase assay (LCCA).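 Further: kinase activity read as percent ATP left after reaction, by luciferase-luciferin chemiluminescence, with 1 µM ATP and 1 µM poly-EY substrate, 2 h at ambient temperature, 10-point dose-response.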 Type of test: biochemical.

For test [3], the target named is T3, KDR (baculovirus expressed human KDR kinase domain D807-V1356) (Homo sapiens, UniProt P35968).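 Further: Luciferase-coupled chemiluminescent kinase assay, activity read as percent ATP left after 4 h reaction at ambient temperature, ATP near KM, 10-point dose-response in 384-well plates.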
T3 construct: human KDR kinase domain D807-V1356; host or cells: baculovirus expression
Kind of test: biochemical.

For test [4], the target named is T4, Flt-4 (baculovirus expressed human Flt-4 kinase domain D725-R1298) (Homo sapiens, UniProt P35916).
T4 construct: human Flt-4 kinase domain D725-R1298; host or cells: baculovirus expression
Briefly: flt-4 Alphascreen Tyrosine Kinase assay.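 Further: AlphaScreen chemiluminescence read-out of biotinylated poly(Glu,Tyr) 4:1 phosphorylation via streptavidin donor and PY100 anti-phosphotyrosine acceptor beads, ATP near KM, 1 hr kinase reaction, 10-point dose-response.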 Type of test: biochemical. The note with it: read-out: flt4 IC50. For orientation: Bead proximity is the source of the signal in Alpha formats.

Where [5] appears, read: Table 4, inhibition as IC50 class.

Read-outs that look alike come from different tables or passages of the source.

T2 sequence (P08581 1011-1343 limits assumed): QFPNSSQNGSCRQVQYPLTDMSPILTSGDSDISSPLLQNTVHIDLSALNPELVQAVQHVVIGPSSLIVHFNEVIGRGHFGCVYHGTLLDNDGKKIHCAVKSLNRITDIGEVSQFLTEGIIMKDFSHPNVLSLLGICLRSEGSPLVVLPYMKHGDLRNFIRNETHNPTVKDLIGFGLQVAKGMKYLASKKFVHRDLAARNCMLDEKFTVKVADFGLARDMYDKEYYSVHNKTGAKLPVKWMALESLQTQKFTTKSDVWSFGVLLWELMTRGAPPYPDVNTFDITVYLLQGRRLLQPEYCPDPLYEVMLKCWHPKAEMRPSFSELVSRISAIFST
T3 sequence (P35968 807-1356): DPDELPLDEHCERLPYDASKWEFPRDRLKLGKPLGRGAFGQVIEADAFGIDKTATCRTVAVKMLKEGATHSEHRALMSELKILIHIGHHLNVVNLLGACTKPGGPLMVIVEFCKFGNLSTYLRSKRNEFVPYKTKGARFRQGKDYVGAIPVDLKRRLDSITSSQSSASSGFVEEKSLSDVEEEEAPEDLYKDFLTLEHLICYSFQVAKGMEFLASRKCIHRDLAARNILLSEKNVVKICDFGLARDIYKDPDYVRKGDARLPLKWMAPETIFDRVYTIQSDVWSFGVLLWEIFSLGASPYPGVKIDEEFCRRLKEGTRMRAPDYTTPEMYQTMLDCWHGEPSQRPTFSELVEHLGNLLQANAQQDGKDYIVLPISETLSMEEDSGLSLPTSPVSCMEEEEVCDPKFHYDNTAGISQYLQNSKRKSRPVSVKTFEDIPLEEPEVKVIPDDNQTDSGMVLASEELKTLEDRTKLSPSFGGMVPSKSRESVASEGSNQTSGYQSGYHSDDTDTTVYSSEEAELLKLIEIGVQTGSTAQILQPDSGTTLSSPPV
T4 sequence (P35916 725-1298 isoform P35916-1): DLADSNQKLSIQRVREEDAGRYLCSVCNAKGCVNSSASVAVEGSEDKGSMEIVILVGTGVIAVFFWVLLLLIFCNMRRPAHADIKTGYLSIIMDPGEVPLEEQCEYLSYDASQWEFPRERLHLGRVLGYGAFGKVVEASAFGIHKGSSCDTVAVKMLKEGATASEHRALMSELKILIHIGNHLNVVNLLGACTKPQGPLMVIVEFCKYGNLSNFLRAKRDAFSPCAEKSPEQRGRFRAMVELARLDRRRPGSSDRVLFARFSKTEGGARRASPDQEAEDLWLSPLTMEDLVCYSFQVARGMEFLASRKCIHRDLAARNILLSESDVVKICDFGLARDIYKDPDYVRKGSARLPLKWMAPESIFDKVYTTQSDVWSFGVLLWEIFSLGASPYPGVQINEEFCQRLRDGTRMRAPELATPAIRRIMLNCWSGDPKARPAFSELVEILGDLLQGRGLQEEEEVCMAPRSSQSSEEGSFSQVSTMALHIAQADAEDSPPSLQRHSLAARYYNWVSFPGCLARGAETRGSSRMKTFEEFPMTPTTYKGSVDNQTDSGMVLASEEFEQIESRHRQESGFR
Chain of c-Kit kinase (P10721 26-976): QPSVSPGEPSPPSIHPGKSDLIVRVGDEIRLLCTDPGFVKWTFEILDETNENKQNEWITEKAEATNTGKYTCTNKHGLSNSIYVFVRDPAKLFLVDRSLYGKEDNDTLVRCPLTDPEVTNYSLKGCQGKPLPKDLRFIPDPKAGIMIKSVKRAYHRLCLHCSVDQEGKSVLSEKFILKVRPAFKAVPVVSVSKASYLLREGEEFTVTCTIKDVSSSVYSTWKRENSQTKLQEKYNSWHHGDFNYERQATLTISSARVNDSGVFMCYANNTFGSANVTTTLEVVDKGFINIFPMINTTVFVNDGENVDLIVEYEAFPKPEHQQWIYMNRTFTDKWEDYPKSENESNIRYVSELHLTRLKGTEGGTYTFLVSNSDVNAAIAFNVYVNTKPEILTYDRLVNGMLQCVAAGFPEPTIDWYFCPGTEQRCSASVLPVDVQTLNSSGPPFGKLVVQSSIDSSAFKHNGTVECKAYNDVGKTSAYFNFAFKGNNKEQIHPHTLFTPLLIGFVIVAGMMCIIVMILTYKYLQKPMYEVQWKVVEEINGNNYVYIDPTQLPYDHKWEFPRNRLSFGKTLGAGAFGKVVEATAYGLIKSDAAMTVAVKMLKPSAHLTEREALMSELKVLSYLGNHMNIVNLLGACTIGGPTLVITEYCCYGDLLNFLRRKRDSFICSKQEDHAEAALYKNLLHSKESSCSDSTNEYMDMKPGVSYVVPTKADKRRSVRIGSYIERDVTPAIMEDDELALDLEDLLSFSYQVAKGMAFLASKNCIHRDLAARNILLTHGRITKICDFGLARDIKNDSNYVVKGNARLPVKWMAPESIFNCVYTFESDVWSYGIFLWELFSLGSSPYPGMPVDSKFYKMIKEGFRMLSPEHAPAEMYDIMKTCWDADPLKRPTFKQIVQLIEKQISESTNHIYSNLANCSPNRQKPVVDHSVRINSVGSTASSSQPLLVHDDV

`COc1cc2c(Oc3ccc(NC(=O)C(=O)NCc4cccc(C(F)(F)F)c4F)cc3F)ccnc2cc1OCC1CCNCC1` [Example 277, N-[3-fluoro-4-({6-(methyloxy)-7-[(piperidin-4-ylmethyl)oxy]quinolin-4-yl}oxy)phenyl]-N′-{[2-fluoro-3-(trifluoromethyl)phenyl]methyl}ethanediamide]: the IC50 (in test [1] (setting [5]); on c-Kit kinase (setting [5]); in test [2] (setting [5]); in test [3] (setting [5]); in test [4] (setting [5])) was below 50 nM each time.

As to `COc1cc2c(Oc3ccc(NC(=O)C(=O)NC(C)c4ccc(Br)cc4)cc3F)ccnc2cc1OCC1CCNCC1` (stereo not shown) [Example 221, N-[1-(4-bromophenyl)ethyl]-N′-[3-fluoro-4-({6-(methyloxy)-7-[(piperidin-4-ylmethyl)oxy]quinolin-4-yl}oxy)phenyl]ethanediamide], the IC50 was 50 to 500 nM in test [1] (setting [5]); 50 to 500 nM against c-Kit kinase (setting [5]); below 50 nM in test [2] (setting [5]); 50 to 500 nM in test [3] (setting [5]); 50 to 500 nM in test [4] (setting [5]).

On to `COc1cc2c(Oc3ccc(NC(=O)C4(C(=O)Nc5ccc(F)cc5)CC4)cc3F)ncnc2cc1OCCCN1CCOCC1` [Example 315, N-[3-fluoro-4-({6-(methyloxy)-7-[(3-morpholin-4-ylpropyl)oxy]quinazolin-4-yl}oxy)phenyl]-N′-(4-fluorophenyl)cyclopropane-1,1-dicarboxamide], for which the half-inhibitory concentration (IC50) (in test [1]; against c-Kit kinase; in test [2]; in test [3]; in test [4]) was below 50 nM throughout.

With `COc1cc2nccc(Oc3ccc(NC(=O)C4(C(=O)Nc5ccc(F)cc5)CC4)cc3F)c2cc1O` [Example 330, N-(3-fluoro-4-{[6-hydroxy-7-(methyloxy)quinolin-4-yl]oxy}phenyl)-N′-(4-fluorophenyl)cyclopropane-1,1-dicarboxamide], the 50% inhibitory concentration (IC50) (in test [1]; against c-Kit kinase; in test [2]; in test [3]; in test [4]) was below 50 nM throughout.

Regarding `COc1cc2c(Oc3ccc(NC(=O)C(=O)NCc4cc(F)cc(F)c4)cc3F)ccnc2cc1OCC1CCNCC1` [Example 233, N-[(3,5-difluorophenyl)methyl]-N′-[3-fluoro-4-({6-(methyloxy)-7-[(piperidin-4-ylmethyl)oxy]quinolin-4-yl}oxy)phenyl]ethanediamide], the half-inhibitory concentration (IC50) in test [1] (setting [5]) was 50 to 500 nM; against c-Kit kinase (setting [5]) it was below 50 nM; in test [2] (setting [5]) it was below 50 nM; in test [3] (setting [5]), below 50 nM; in test [4] (setting [5]), below 50 nM.

As to `COc1cc2ncnc(Oc3ccc(NC(=O)C4(C(=O)Nc5ccc(F)cc5)CC4)cc3F)c2cc1OCCCN1CCOCC1` [Example 321, N-[3-fluoro-4-({7-(methyloxy)-6-[(3-morpholin-4-ylpropyl)oxy]quinazolin-4-yl}oxy)phenyl]-N′-(4-fluorophenyl)cyclopropane-1,1-dicarboxamide], the IC50 is below 50 nM in test [1]; 50 to 500 nM against c-Kit kinase; below 50 nM in test [2]; below 50 nM in test [3]; below 50 nM in test [4].

Take `COc1cc2c(Oc3ccc(NC(=O)C(=O)NCc4cc(F)cc(C(F)(F)F)c4)cc3F)ccnc2cc1OCC1CCNCC1` [Example 232, N-[3-fluoro-4-({6-(methyloxy)-7-[(piperidin-4-ylmethyl)oxy]quinolin-4-yl}oxy)phenyl]-N′-{[3-fluoro-5-(trifluoromethyl)phenyl]methyl}ethanediamide]: the IC50 is below 50 nM in test [1] (setting [5]); 50 to 500 nM against c-Kit kinase (setting [5]); below 50 nM in test [2] (setting [5]); below 50 nM in test [3] (setting [5]); 50 to 500 nM in test [4] (setting [5]).

As to `COc1cc2c(Oc3ccc(NC(=O)C4(C(=O)Nc5ccc(F)cc5)CC4)cc3F)ccnc2cc1OCC1CCN(C)CC1` [Example 334, N-{3-fluoro-4-[(6-(methyloxy)-7-{[(1-methylpiperidin-4-yl)methyl]oxy}quinolin-4-yl)oxy]phenyl}-N′-(4-fluorophenyl)cyclopropane-1,1-dicarboxamide], the concentration for half-maximal inhibition (IC50) (in test [1]; at c-Kit kinase; in test [2]; in test [3]; in test [4]) was below 50 nM throughout.

Usually IC50 stands for the point on the concentration scale where inhibition reaches its midpoint.
